In patent publication US20180251431A1 (VERTEX PHARMACEUTICALS INCORPORATED, priority 2016, published 2018) one finds IC50 and hepatocyte CLint data, which are given here for one compound.

Where two headings read alike, the source gives them in different places.

Data set [1] concerns HEK293 cells. Nature of the data set: HEK293 VLCFA-LPC IC50 determination (13C-labeled C26:0 LPC by UHPLC/MS). The class given is cell-based, human. The note with it: Homo sapiens. The procedure, abridged:
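Suspension HEK293 cells (final 0.5 million/mL after mixing with equal volume) incubated 48 hours with compound plus 13C-acetate (1.0 mg/mL in added media), shaking at 37° C. Lipids extracted with hexane/isopropanol or methanol, C13:0 LPC standard. UHPLC/MS of 13C-labeled C26:0 LPC (638.500/104.100 m/z); IC50 by four-parameter fit.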

The nature of data set [2]: Metabolic intrinsic clearance in human hepatocytes. The note with it: cryopreserved hepatocytes in suspension, pH 7.5, 0.5 million cells/mL, incubation for 4 hours. The class given is in vitro ADME. As to the method: The metabolic intrinsic clearance (CLint) of Compound 87 was determined in human, monkey, dog, rat, and mouse hepatocytes. Cryopreserved human hepatocytes (Lot Hue50c), monkey hepatocytes (cynomolgus; Lot Cy328), dog hepatocytes (beagle, Lot Db235), rat hepatocytes (Sprague Dawley; NNH), and mouse hepatocytes (CD-1; Lot Mc522) were obtained from ThermoFisher (Paisley, UK). In separate experiments, compound 87 (1 μM) was incubated with hepatocytes from each species (0.5 million cells/mL, suspension) in Dulbecco's Modified Eagle's Medium (DMEM) supplemented with 4-(2-Hydroxyethyl)piperazine-1-ethanesulfonic acid (HEPES, 9 mM) and fructose (2.2 mM) (pH 7.5). Samples were quenched with acetonitrile and analyzed by LC-MS/MS. The mean CLint for Compound 87 in human, monkey, dog, rat, and mouse hepatocytes after incubation for 4 hours was determined to be ≤2.5, ≤2.5, 7.2, 23.6 and 10.7 μL/min/million cells. Based on these date, Compound 87 was low to moderately metabolized in hepatocytes in mouse, rat, dog, monkey, and human, and the rank order of stability at […] was approximately human>monkey>dog>mouse>rat. […] The metabolic stability of Compound 87 was not expected.

The term IC50 denotes the point on the concentration scale where inhibition reaches its midpoint. In general, hepatocyte CLint refers to the capacity of the preparation to metabolise the compound, expressed as a volume cleared per time. Higher therefore signals faster metabolism. As to `O=C(Nc1ccn(-c2ccnc(F)c2)n1)C1(c2ccccc2F)CC1` [Compound 87, 1-(2-fluorophenyl)-N-[1-(2-fluoro-4-pyridyl)pyrazol-3-yl]cyclopropanecarboxamide], the IC50 in data set [1] (HEK293, 48 h, HEK293, half maximal reduction in C26:0 LPC, about 48 hours, read-out: IC50) turned out to be 8 nM; in data set [1] (HEK293, HEK293 cells, average of one or more replicates, read-out: Average HEK293 IC50), 13 nM. This compound also returned an intrinsic metabolic clearance (hepatocyte CLint) at 1 μM in data set [2] of at most 2.5 µL/min/1e6 cells.
